These results are taken from PubChem BioAssay (NCI).

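Cultured in 96-well plates, cells were exposed to test compound for 48 hours across five concentrations. TGI: concentration producing complete growth inhibition.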

Among the test systems are DU-145 prostate; NCI-H23 lung; OVCAR-8 ovarian; HCT-116 colon; HOP-92 NSCLC; MALME-3M melanoma; MCF7 breast; SNB-19 CNS; A498 renal; UACC-62 melanoma; KM12 colon.
Holding throughout (experiment): NCI tumour cell line growth inhibition, 48 h

Turning to `CC(C)C1=CC(=O)[C@@](C)(C2[C@H](O)C[C@@]3(C)[C@@H]4CC=C5[C@@H](CC[C@@H](OC6OCC(O)C(O)C6OC6OC(C)C(O)C(O)C6O)C5(C)C)[C@]4(C)C(=O)C[C@]23C)O1` (stereo not given in full), the TGI with DU-145 prostate, in the test with NCI-H23 lung, with OVCAR-8 ovarian, in the test on HCT-116 colon, in the test with HOP-92 NSCLC and in the test on MALME-3M melanoma was above 100 µM each time. Also, the TGI with MCF7 breast, in the test with SNB-19 CNS, with A498 renal, in the test with UACC-62 melanoma and with KM12 colon was above 100 µM each time.

Turning to `C#CC(O)/C=C/CCCCCCC#CC/C=C\CC#CCCCCCCCCC(O)C#C` (stereo not given), the TGI in the test on DU-145 prostate turned out to be 24.1 µM; with NCI-H23 lung, 4.17 µM; in the test on OVCAR-8 ovarian, 5.11 µM; in the test with HCT-116 colon, 7.77 µM; in the test on HOP-92 NSCLC, 5.05 µM; in the test with MALME-3M melanoma, 4.41 µM. The TGI with MCF7 breast was 39.5 µM; with SNB-19 CNS, 37.5 µM; in the test with A498 renal, 28.9 µM; in the test with UACC-62 melanoma it was 23 µM; in the test on KM12 colon, 11.5 µM.

For the compound `C=C1C(=O)O[C@H]2C[C@@H]1[C@@H](O)[C@H](O)[C@@H](C)CCCC(C)=CCC[C@@]2(C)O`, the TGI with DU-145 prostate was above 100 µM; in the test with NCI-H23 lung, 42.7 µM; in the test on HCT-116 colon it was 51.8 µM; in the test on HOP-92 NSCLC, 99.5 µM; in the test with MALME-3M melanoma, 32.2 µM; with MCF7 breast, 26.5 µM. The TGI in the test with SNB-19 CNS was above 100 µM; in the test with A498 renal, above 100 µM; in the test on UACC-62 melanoma, 49.2 µM; in the test with KM12 colon, above 100 µM.

With `CC1=C(C)CC2(C=C(C(C)(C)C)C(=O)C(C(C)(C)C)=C2)SC1`, the TGI was above 100 µM in the test with DU-145 prostate; 57.1 µM with NCI-H23 lung; above 100 µM with HCT-116 colon; 47.7 µM in the test with HOP-92 NSCLC; 33.4 µM with MALME-3M melanoma; 36.6 µM in the test with MCF7 breast. The TGI with SNB-19 CNS amounted to 31.5 µM; with A498 renal, 35.4 µM; in the test with UACC-62 melanoma, 95.6 µM; in the test with KM12 colon, 55 µM.

As to `CCc1c(-c2ccc(OC)cc2)oc(OC)c(C)c1=O`, the TGI in the test on DU-145 prostate, with NCI-H23 lung, in the test with OVCAR-8 ovarian, in the test on HCT-116 colon, in the test on HOP-92 NSCLC and in the test on MCF7 breast was above 100 µM each time. Also, the TGI with SNB-19 CNS, in the test with A498 renal, in the test on UACC-62 melanoma and with KM12 colon was above 100 µM in each case.

In the case of `COC(=O)C1(SC)C2CCC3C2CCC31` (stereo not given), the TGI with DU-145 prostate, in the test on NCI-H23 lung, in the test with OVCAR-8 ovarian, in the test on HCT-116 colon, in the test on HOP-92 NSCLC and in the test on MALME-3M melanoma was above 100 µM in each case. Besides, the TGI in the test on MCF7 breast, in the test on SNB-19 CNS and in the test with A498 renal was above 100 µM in each case.

`C=C(Cl)C(Cl)(CCl)CCC(Br)C(C)(C)Br` (stereo not given): the TGI with DU-145 prostate, in the test with NCI-H23 lung, in the test on OVCAR-8 ovarian, in the test on HCT-116 colon, with HOP-92 NSCLC and in the test with MCF7 breast was above 10 µM throughout. Also, the TGI in the test on SNB-19 CNS, in the test with A498 renal, with UACC-62 melanoma and in the test with KM12 colon was above 10 µM in each case.

Turning to `C(#CP(c1ccccc1)c1ccccc1)P(C#CP(c1ccccc1)c1ccccc1)c1ccccc1`, the TGI with DU-145 prostate, with OVCAR-8 ovarian, with HCT-116 colon, in the test with HOP-92 NSCLC, in the test with MALME-3M melanoma and in the test on MCF7 breast was above 100 µM each time. Further, the TGI with SNB-19 CNS, in the test on A498 renal, in the test with UACC-62 melanoma and in the test with KM12 colon was above 100 µM each time.

Consider `COc1cc(-c2c3c(cc4c2OCO4)[C@@H](Nc2ccc(-c4ccc(-c5ccc(N[C@@H]6c7cc8c(cc7C(c7cc(OC)c(O)c(OC)c7)[C@H]7C(=O)OC[C@H]67)OCO8)cc5)cc4)cc2)[C@H]2COC(=O)[C@@H]2C3)cc(OC)c1O` (stereo not given in full), for which the TGI with DU-145 prostate was found to be 4.74 µM; in the test with NCI-H23 lung, 20.7 µM; with OVCAR-8 ovarian, 3.77 µM; in the test with HCT-116 colon, 3.19 µM; in the test on HOP-92 NSCLC, 29.4 µM; in the test with MALME-3M melanoma, 7.4 µM. Also, the TGI in the test with MCF7 breast came out at 12.1 µM; with SNB-19 CNS, 12.5 µM; in the test on A498 renal, 21.4 µM; in the test on KM12 colon it was 4.63 µM.

As for `O=C(Nc1ccc(S(=O)(=O)/N=c2\ncccn2C(=O)C(C(F)(F)F)C(F)(F)F)cc1)C(C(F)(F)F)C(F)(F)F`, the TGI in the test with DU-145 prostate, in the test with NCI-H23 lung, with OVCAR-8 ovarian, in the test with HCT-116 colon, in the test on MALME-3M melanoma and in the test with MCF7 breast was above 100 µM throughout. Further, the TGI in the test with SNB-19 CNS, in the test with A498 renal, in the test with UACC-62 melanoma and with KM12 colon was above 100 µM throughout.

Regarding `Cc1cc2nc3c(C#N)c4c(c(-c5ccc(Cl)cc5)n3c2cc1C)CCC4`, the TGI in the test on DU-145 prostate is 44 µM; in the test with NCI-H23 lung it was 35.4 µM; with HCT-116 colon, 32.7 µM; with HOP-92 NSCLC, 50.7 µM; in the test with MALME-3M melanoma, 46.8 µM; in the test with MCF7 breast, above 100 µM. For the same compound, the TGI was 37.8 µM in the test on SNB-19 CNS, 79.4 µM in the test with A498 renal, 33.9 µM in the test on UACC-62 melanoma and 47.8 µM with KM12 colon.

In the case of `CCCCOC(=O)C1CC[C@H]2[C@@H]3CCc4cc(OC(=O)c5cccc6c(=O)c7ccccc7[nH]c56)ccc4[C@H]3CC[C@]12C` (stereo not given in full), the TGI in the test with DU-145 prostate was 14.9 µM; with NCI-H23 lung, 16.6 µM; in the test with OVCAR-8 ovarian, 21.3 µM; in the test with HCT-116 colon, 17.1 µM; in the test with HOP-92 NSCLC, 16.5 µM; in the test with MALME-3M melanoma it was 18.7 µM. Besides, the TGI stood at 25.8 µM in the test on MCF7 breast, 16.7 µM in the test on A498 renal, 13.3 µM with UACC-62 melanoma and 17 µM in the test with KM12 colon.

`O=C(O)c1nc2ccc(C(F)(F)F)cc2nc1Nc1ccc(F)cc1`: the TGI amounted to 85 µM in the test with DU-145 prostate; 37.6 µM in the test with NCI-H23 lung; 83.8 µM in the test with OVCAR-8 ovarian; 35 µM in the test on HCT-116 colon; 38.3 µM with MALME-3M melanoma; 61.5 µM in the test on MCF7 breast. Also, the TGI came to 37.6 µM in the test with A498 renal, 27.9 µM in the test on UACC-62 melanoma and 63 µM with KM12 colon.
